{
  "source": "paper PMC7478952",
  "about": "(Pharmaceutical Research, 2020)",
  "key": {"DAAO [1]": {"tested_on": "DAAO", "set-up": "method as in PMID 28780732", "conditions": "pre-treatment; cited from earlier work"}, "[2]": {"test": "Plasma PK of TAK-831 after single oral administration in mice (target occupancy study, 1-compartment model)", "assay_type": "in vivo, C57BL/6 J mice", "procedure": "(§1) PGM019260 was formulated in 5% dimethyl sulfoxide and 95% v/v of 20% w/v 2-hydroxypropyl-β-cyclodextrin. […] After 2, 4, 6, 8, 10 and 24 h from oral administration, PGM019260 at 60 μg/kg was administered by intravenous route (i.v.) with a dose volume of 1 mL/kg (n = 4). Mice were sacrificed 20 min after tracer dosing. Blood was collected into heparin containing tubes and plasma was separated.\n(§2) The grand mean value of tracer concentration in vehicle treatment group calculated from all the time points (2, 4, 6, 8, 10 and 24 h after vehicle treatment) was used as the baseline of tracer concentration across all the time points. […] The differential equations of PK/TO/PD model are shown below (Eqs. 1, 2 and 5). […] 4 and 6, respectively.1 dAp/dt=−CLp/Vp·Ap 2 dTO/dt=Kon·BRmax−TO·Cp−Koff·TO 3 Tracer concentration=BLtr·1−TO 4 In vivoKd=Koff/Kon×fp 5 dPD/dt=Kin−Kout·BRmax−Imax·TO 6 Kin=BL·Kout\n(§3) The convergence criterion was three significant digits."}, "[3]": {"target": "T1, D-amino acid oxidase (DAAO) (Mus musculus, UniProt P18894)", "T1 construct": "from tissue", "T1 sequence (P18894 whole entry)": "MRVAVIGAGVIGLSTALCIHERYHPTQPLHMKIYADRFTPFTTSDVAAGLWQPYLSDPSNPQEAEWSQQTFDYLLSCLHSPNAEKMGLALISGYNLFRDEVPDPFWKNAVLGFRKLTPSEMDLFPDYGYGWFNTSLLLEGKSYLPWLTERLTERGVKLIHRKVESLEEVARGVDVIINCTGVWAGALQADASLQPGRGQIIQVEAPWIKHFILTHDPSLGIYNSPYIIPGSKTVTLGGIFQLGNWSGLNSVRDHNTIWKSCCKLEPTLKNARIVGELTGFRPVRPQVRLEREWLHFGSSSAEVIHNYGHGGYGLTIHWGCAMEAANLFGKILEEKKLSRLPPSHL", "test": "Cerebellum target occupancy of DAAO measured by displacement of tracer PGM019260 (mechanistic binding kinetics model)", "assay_type": "in vivo, C57BL/6 J mice", "procedure": "as §1, §2, §3"}, "in vivo": {"test": "in vivo", "conditions": "mouse", "procedure": "Mice were sacrificed (n = 2) 0.25, 0.5, 1, 2, 4, 8 and 24 h after p.o. dosing. Blood was collected with heparinized syringe and plasma was separated. Three separate brain regions (cerebellum, front and back part of cerebrum) were isolated. The radioactivity in plasma and brain regions was measured by liquid scintillation counter. […] Plasma and whole brain homogenate samples were processed for metabolite profiling by HPLC with on-line radioisotope detector or liquid scintillation counter."}, "[4]": {"test": "Free fraction of TAK-831 in mouse plasma", "assay_type": "in vitro ADME", "conditions": "read-out: fp free fraction in mouse plasma"}, "[5]": {"test": "Free fraction of TAK-831 in human plasma", "assay_type": "in vitro ADME", "conditions": "read-out: fp,human free fraction in plasma"}, "DAAO [6]": {"target": "DAAO (Homo sapiens, UniProt P14920)", "sequence (P14920 whole entry, species assumed)": "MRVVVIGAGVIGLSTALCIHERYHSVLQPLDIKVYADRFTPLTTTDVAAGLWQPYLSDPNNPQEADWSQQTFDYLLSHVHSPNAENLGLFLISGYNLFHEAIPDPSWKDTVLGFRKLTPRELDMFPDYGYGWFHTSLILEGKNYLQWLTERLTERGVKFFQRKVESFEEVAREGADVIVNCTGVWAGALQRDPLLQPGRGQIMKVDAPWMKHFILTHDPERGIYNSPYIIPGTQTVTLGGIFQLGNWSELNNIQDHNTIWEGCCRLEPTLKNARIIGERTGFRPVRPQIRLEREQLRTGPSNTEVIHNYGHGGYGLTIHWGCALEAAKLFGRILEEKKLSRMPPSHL", "test": "Inhibition of DAAO activity in vitro", "assay_type": "biochemical"}, "P-glycoprotein (P-gp)": {"target": "P-glycoprotein (P-gp) (Homo sapiens, UniProt P08183)", "sequence (P08183 whole entry)": "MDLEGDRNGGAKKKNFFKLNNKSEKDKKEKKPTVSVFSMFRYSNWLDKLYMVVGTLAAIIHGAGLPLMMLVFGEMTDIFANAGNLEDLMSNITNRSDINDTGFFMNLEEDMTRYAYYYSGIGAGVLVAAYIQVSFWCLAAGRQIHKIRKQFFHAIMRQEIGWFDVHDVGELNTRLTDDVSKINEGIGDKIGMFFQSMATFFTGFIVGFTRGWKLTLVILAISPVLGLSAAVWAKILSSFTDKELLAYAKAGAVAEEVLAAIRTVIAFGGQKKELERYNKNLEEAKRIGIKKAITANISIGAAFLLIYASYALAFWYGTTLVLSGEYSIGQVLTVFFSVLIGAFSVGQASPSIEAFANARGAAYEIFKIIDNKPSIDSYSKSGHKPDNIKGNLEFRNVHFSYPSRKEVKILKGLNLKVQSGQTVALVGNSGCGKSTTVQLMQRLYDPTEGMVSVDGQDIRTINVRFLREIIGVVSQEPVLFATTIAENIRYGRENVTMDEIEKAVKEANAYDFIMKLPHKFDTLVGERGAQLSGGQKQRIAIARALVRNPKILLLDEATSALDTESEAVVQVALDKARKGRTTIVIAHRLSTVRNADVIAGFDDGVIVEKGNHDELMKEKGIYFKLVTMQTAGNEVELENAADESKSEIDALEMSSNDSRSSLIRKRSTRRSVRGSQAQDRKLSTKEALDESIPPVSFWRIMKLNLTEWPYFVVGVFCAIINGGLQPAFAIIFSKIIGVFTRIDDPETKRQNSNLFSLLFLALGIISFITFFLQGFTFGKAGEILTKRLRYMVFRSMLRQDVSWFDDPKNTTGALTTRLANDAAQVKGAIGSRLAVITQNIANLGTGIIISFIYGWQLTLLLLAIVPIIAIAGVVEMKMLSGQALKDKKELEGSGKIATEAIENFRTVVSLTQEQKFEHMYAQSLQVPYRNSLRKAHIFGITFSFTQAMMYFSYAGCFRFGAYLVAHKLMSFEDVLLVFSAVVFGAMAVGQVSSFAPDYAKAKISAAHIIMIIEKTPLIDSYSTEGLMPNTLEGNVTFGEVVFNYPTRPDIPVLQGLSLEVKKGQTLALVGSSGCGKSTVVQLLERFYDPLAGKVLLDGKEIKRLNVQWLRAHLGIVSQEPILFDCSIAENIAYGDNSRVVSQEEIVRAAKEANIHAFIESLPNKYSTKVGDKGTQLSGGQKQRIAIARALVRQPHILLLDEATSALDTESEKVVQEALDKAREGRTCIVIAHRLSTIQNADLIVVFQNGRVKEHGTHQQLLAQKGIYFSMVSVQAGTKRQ", "test": "P-glycoprotein substrate assessment", "assay_type": "in vitro ADME"}, "[7]": {"target": "T2, breast cancer resistance protein (BCRP) (Homo sapiens, UniProt Q9UNQ0)", "T2 sequence (Q9UNQ0 1-655)": "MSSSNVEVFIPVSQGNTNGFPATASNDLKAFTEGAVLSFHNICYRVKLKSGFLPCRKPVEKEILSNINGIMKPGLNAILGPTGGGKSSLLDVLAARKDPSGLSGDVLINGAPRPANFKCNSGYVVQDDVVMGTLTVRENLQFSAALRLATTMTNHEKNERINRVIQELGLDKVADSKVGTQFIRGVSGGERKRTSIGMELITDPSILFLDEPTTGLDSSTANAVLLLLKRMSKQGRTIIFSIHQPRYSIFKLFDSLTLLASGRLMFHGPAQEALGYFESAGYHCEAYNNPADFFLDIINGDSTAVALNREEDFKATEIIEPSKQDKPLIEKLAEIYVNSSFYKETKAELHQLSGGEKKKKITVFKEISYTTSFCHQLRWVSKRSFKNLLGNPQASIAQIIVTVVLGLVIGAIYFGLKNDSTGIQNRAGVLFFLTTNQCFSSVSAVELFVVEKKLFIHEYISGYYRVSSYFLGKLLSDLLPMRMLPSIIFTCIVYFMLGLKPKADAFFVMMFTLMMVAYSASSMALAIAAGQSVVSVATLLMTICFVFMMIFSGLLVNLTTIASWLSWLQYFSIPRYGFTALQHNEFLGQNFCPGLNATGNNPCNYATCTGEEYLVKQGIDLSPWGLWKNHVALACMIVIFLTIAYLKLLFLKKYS", "test": "BCRP substrate assessment", "assay_type": "in vitro ADME"}, "[8]": {"test": "Translated human PK model (single species allometric scaling from rats)", "procedure": "(§4) The translational modeling steps from the mouse PK/TO/PD model to that for humans are as follows; 1) PK model was replaced by the human PK model predicted from rats with single species allometric scaling approach(6). […] The differential equations of translated human PK/TO/PD model are shown in Eq. S12-S14, 2 and 5. […] The model parameters used for simulation are summarized in Supplementary table 2.\n(§5) C1 is calculated by A1/V1. […] Imax represents maximum inhibitory effect of TO on Kout."}, "DAAO [9]": {"tested_on": "DAAO", "conditions": "human, taken from the mouse model", "procedure": "as §4, §5"}, "D-serine in cerebellum [10]": {"tested_on": "D-serine in cerebellum", "test": "Translated human PD model (D-serine in cerebellum)", "conditions": "taken from the mouse model", "procedure": "as §4, §5"}, "D-serine in cerebellum [11]": {"tested_on": "D-serine in cerebellum", "conditions": "cited from earlier work"}, "novel object recognition": {"tested_on": "novel object recognition", "conditions": "cited from earlier work"}, "[12]": {"tested_on": "cerebellar-based associative learning", "conditions": "mice; cited from earlier work"}, "[13]": {"tested_on": "social interaction (model of negative symptoms)", "conditions": "Balb/c mice; cited from earlier work"}, "human DAAO": {"tested_on": "human DAAO", "set-up": "method as in PMID 28780732", "conditions": "cited from earlier work"}, "mouse DAAO": {"tested_on": "mouse DAAO", "set-up": "method as in PMID 28780732", "conditions": "cited from earlier work"}},
  "data": [
    {"compound": "O=C([O-])c1ccccc1.[Na+]", "note": "[sodium benzoate]", "values": [
      {"measurement": "displacement of PGM019260 in the mouse cerebellum", "setting": "DAAO [1]", "value": "dose dependent displacement"}
    ]},
    {"compound": "O=c1[nH]nc(CCc2ccc(C(F)(F)F)cc2)cc1O", "note": "[TAK-831, 4-hydroxy-6-{2-[4-(trifluoromethyl)phenyl]ethyl}pyridazin-3(2H)-one]", "values": [
      {"measurement": "CL/F", "setting": "[2]; C57BL/6 J, mouse, plasma, po, single p.o. 0.3-10 mg/kg, model estimate, read-out: CLp oral clearance (converted)", "value": 85.7, "unit": "mL/min/kg"},
      {"measurement": "Tmax", "setting": "[2]; C57BL/6 J, mouse, plasma, po, single p.o., first sampling at 2 h", "value": "≤ 2", "unit": "h"},
      {"measurement": "dose dependency of plasma exposure", "setting": "[2]; p.o. dose range 0.3 to 10 mg/kg", "value": "increased almost dose-proportionally"},
      {"measurement": "Vp apparent volume of distribution", "setting": "[2]; single p.o. 0.3-10 mg/kg, model estimate", "value": 35.7, "unit": "L/kg"},
      {"measurement": "Kd", "setting": "[3]", "value": 0.809, "unit": "nM"},
      {"measurement": "fold by which in vivo Kd is lower than in vitro IC50", "setting": "[3]; in vivo Kd vs in vitro IC50", "value": "about 8 fold"},
      {"measurement": "Kon association rate constant", "setting": "[3]; mice cerebellum, against total plasma concentration, model estimate", "value": 0.0372, "unit": "mL/ng/h"},
      {"measurement": "BRmax maximum binding ratio", "setting": "[3]; mice cerebellum, model estimate", "value": 0.987},
      {"measurement": "accumulation of PK or TO after once daily multiple doses (empirical, separate studies)", "setting": "[3]; mice, once daily multiple doses, data not shown", "value": "no accumulation was observed"},
      {"measurement": "TAK-831 dosage at which maximum decline of tracer concentration was observed", "setting": "[3]; mice, single p.o., tracer PGM019260 in cerebellum", "value": "≥ 3", "unit": "mg/kg"},
      {"measurement": "koff", "setting": "[3]; mouse, read-out: Koff dissociation rate constant", "value": "3.14e-05", "unit": "s⁻¹"},
      {"measurement": "Kp", "setting": "in vivo; C57BL/6 J", "value": 0.181},
      {"measurement": "fraction unbound", "setting": "in vivo; C57BL/6 J", "value": 0.425},
      {"measurement": "time by which equilibrium across BBB was reached", "setting": "in vivo; C57BL/6 J", "value": "≤ 0.25", "unit": "h"},
      {"measurement": "Kp uu", "setting": "in vivo", "value": 1},
      {"measurement": "fraction unbound", "setting": "[4]", "value": 0.077},
      {"measurement": "fraction unbound", "setting": "[5]", "value": 0.0067},
      {"measurement": "in vitro IC50 values on enzymatic activity, mice vs humans", "setting": "DAAO [6]; comparison between mouse and human enzyme", "value": "comparable between mice and humans"},
      {"measurement": "IC50", "setting": "DAAO [6]; read-out: 50% inhibitory concentration (IC50) of DAAO activity in vitro (converted)", "value": 6.33, "unit": "nM"},
      {"measurement": "substrate of P-glycoprotein (P-gp)", "setting": "P-glycoprotein (P-gp)", "value": "neither a substrate"},
      {"measurement": "substrate of breast cancer resistance protein (BCRP)", "setting": "[7]", "value": "neither a substrate"},
      {"measurement": "Ka absorption rate constant", "setting": "[8]", "value": 0.218, "unit": "h⁻¹"},
      {"measurement": "BRmax maximum binding ratio", "setting": "DAAO [9]", "value": 0.987},
      {"measurement": "Imax maximum inhibitory effect", "setting": "D-serine in cerebellum [10]", "value": 0.877},
      {"measurement": "D-serine levels in the cerebellum of normal mice", "setting": "D-serine in cerebellum [11]", "value": "increase D-serine levels"},
      {"measurement": "dose at which efficacy was observed", "setting": "novel object recognition; acute oral dose in mice", "value": "≥ 0.3", "unit": "mg/kg"},
      {"measurement": "identification of the novel object", "setting": "novel object recognition; range of acute and chronic doses in mice", "value": "able to identify the novel object"},
      {"measurement": "acquisition of the conditioned response", "setting": "[12]", "value": "improvement in the acquisition of the conditioned response"},
      {"measurement": "scopolamine induced deficit", "setting": "[12]", "value": "reversing the scopolamine induced deficit"},
      {"measurement": "efficacy in social interaction model", "setting": "[13]", "value": "efficacious"}
    ]},
    {"compound": "COc1ccc(CSc2c[nH]c(=O)c(O)c2)cn1", "note": "[PGM019260]", "values": [
      {"measurement": "DAAO inhibition in human enzyme in vitro", "setting": "human DAAO", "value": "highly potent DAAO inhibition"},
      {"measurement": "DAAO inhibition in mouse enzyme in vitro", "setting": "mouse DAAO", "value": "highly potent DAAO inhibition"}
    ]},
    {"compound": "O=c1[nH]nc(CCc2ccc([14C](F)(F)F)cc2)cc1O", "note": "[[^14C]TAK-831]", "values": [
      {"measurement": "dose dependency of plasma exposure of radioactivity", "setting": "in vivo", "value": "increased almost dose-proportionally"}
    ]}
  ]
}
